Data on four molecules can be found in EPA's ToxRefDB 2.

Data set [1] relates to rat. The following applies: Prenatal developmental toxicity study; wistar; Oral; Feed; dose end: 20 GD; group: maternal; systemic / in life observation / body weight / body weight gain.
Data set [2] concerns rat. The following applies: Subchronic oral toxicity in rodents, fischer, Water, dose end: 13 week, group: systemic.
A further data set concerns rabbit. The following applies: Prenatal developmental toxicity study, new zealand white, Dermal, Topical, dose end: 18 GD, group: maternal.
Data set [3] deals with rat. The following applies: Fertility (Segment I); sprague dawley; Oral; Gavage/Intubation; dose end: 13 PND; group: offspring; systemic / in life observation / body weight / offspring (pup) weight.
The subject of data set [4] is rat. The following applies: Combined chronic toxicity/carcinogenicity; sprague dawley; Oral; Gavage/Intubation; dose end: 24 month; group: systemic; systemic / hematology / erythrocyte (rbc) count differential / erythrocyte (rbc) + systemic / hematology / hemoglobin (hgb) / hemoglobin (….
Data set [5] relates to mouse. The following applies: Subchronic oral toxicity in rodents, b6c3f1, Gavage/Intubation, dose end: 13 week, group: systemic.
For data set [6], the system named is mouse. The following applies: Combined chronic toxicity/carcinogenicity, b6c3f1, Oral, Gavage/Intubation, dose end: 2 year, group: systemic.
Data set [7] relates to mouse. The following applies: Carcinogenicity; cd1; Oral; Feed; dose end: 18 month; group: systemic; systemic / in life observation / body weight / body weight + systemic / in life observation / body weight / body weight gain.
Data set [8] concerns rat. The following applies: Subchronic oral toxicity in rodents, sprague dawley, Feed, dose end: 90 day, group: systemic.
Data set [9] concerns rat. The following applies: Combined chronic toxicity/carcinogenicity, sprague dawley, Oral, Feed, dose end: 104 week, group: systemic.
A further data set has as its system dog. The following applies: Chronic toxicity; beagle; Oral; Gavage/Intubation; dose end: 52 week; group: systemic; systemic / clinical chemistry / cholesterol / cholesterol + systemic / clinical chemistry / triglycerides / triglycerides + systemic / in ….
Data set [10] concerns mouse. The following applies: Subchronic oral toxicity in rodents, cd1, Feed, dose end: 13 week, group: systemic, systemic / hematology / leukocyte (wbc) count differential / leukocyte (wbc) + systemic / hematology / lymphocyte / lymphocyte + systemic / ….
[11] abbreviates: systemic / clinical chemistry / aspartate aminotransferase (ast/sgot) / aspartate aminotransferase (ast/sgot) + systemic / clinical ….
Where [12] appears, read: systemic / in life observation / clinical signs / desquamation + systemic / in life observation / clinical signs / erythema + systemic / ….
The mark [13] stands for this setting: systemic / hematology / reticulocyte / reticulocyte + systemic / organ weight / spleen / absolute + systemic / organ weight / spleen / ….
Where [14] appears, read: systemic / hematology / methemoglobin / methemoglobin + systemic / hematology / reticulocyte / reticulocyte + systemic / pathology ….
Setting [15] is: systemic / pathology microscopic / bone marrow / hypercellularity.
Where [16] appears, read: systemic / organ weight / liver / absolute + systemic / organ weight / liver / relative to body weight + systemic / organ weight / heart / ….
Where [17] appears, read: systemic / organ weight / liver / relative to body weight + systemic / clinical chemistry / cholesterol / cholesterol + systemic / organ ….
Where [18] appears, read: systemic / organ weight / testes / relative to body weight.

For orientation: LOAEL means the lowest tested level that showed an adverse finding. By NOAEL is commonly meant the highest dose or exposure tested at which no adverse effect was seen. With `CCCCOCCOCCO` [2-(2-Butoxyethoxy)ethanol], the LEL turned out to be 25 mg/kg/day in the data set with rat [1], 250 mg/kg/day in the data set with rat [2] (systemic / hematology / erythrocyte (rbc) count differential / erythrocyte (rbc) + systemic / hematology / hematocrit (hct) / hematocrit (…), 300 mg/kg/day in the data set with rabbit (systemic / in life observation / clinical signs / desquamation + systemic / in life observation / clinical signs / erythema) and 1000 mg/kg/day in the data set with rat [3]. In addition, the LOAEL in the data set on rat [1] is over 633 mg/kg/day; with rat [2] (setting [11]), over 1000 mg/kg/day; in the data set on rabbit (setting [12]) it was over 1000 mg/kg/day; in the data set on rat [3], over 1000 mg/kg/day. Besides, the NEL in the data set with rat [1] was under 25 mg/kg/day; in the data set on rat [2] (setting [11]), 50 mg/kg/day; in the data set on rabbit (setting [12]), 100 mg/kg/day; in the data set with rat [3], 500 mg/kg/day. Besides, the NOAEL in the data set on rat [1] was at least 633 mg/kg/day; in the data set on rat [2] (setting [11]), at least 1000 mg/kg/day; in the data set on rabbit (setting [12]), at least 1000 mg/kg/day; in the data set with rat [3], at least 1000 mg/kg/day.

Turning to `Nc1ccc([N+](=O)[O-])cc1` [4-Nitroaniline], the LEL amounted to 1.5 mg/kg/day in the data set on rat [4], 10 mg/kg/day in the data set with mouse [5] (systemic / pathology microscopic / spleen / hematopoietic cell proliferation + systemic / organ weight / liver / relative to body weight + …) and 3 mg/kg/day with mouse [6] (setting [15]). For the same molecule, the values for the LOAEL in the data set with rat [4], with mouse [5] (setting [13]) and in the data set on mouse [6] (setting [14]) were over 9 mg/kg/day, 30 mg/kg/day and 30 mg/kg/day, respectively. The NEL is 0.25 mg/kg/day in the data set on rat [4], 3 mg/kg/day in the data set with mouse [5] (setting [13]) and under 3 mg/kg/day in the data set with mouse [6] (setting [15]). The NOAEL was at least 9 mg/kg/day in the data set with rat [4], 10 mg/kg/day in the data set on mouse [5] (setting [13]) and 3 mg/kg/day with mouse [6] (setting [14]).

For `O=C(NC(=O)c1c(F)cccc1F)Nc1ccc(CON=C(c2ccc(Cl)cc2)C2CC2)cc1` [Flucycloxuron], the LEL came to 73 mg/kg/day with mouse [7], 200 mg/kg/day in the data set on rat [8] (setting [16]), 120 mg/kg/day in the data set with rat [9] (setting [18]) and 10 mg/kg/day with dog. In addition, the LOAEL was 73 mg/kg/day in the data set with mouse [7], 2000 mg/kg/day with rat [8] (systemic / pathology microscopic / liver / necrosis + systemic / pathology microscopic / spleen / pigmentation + systemic / organ weight / …), over 7000 mg/kg/day in the data set on rat [9] (setting [17]) and 10 mg/kg/day in the data set with dog. The NEL with mouse [7] is 5.3 mg/kg/day; with rat [8] (setting [16]), under 200 mg/kg/day; with rat [9] (setting [18]) it was under 120 mg/kg/day; with dog, under 10 mg/kg/day. For the same molecule, the NOAEL with mouse [7] was 5.3 mg/kg/day; with rat [8] (systemic / pathology microscopic / liver / necrosis + systemic / pathology microscopic / spleen / pigmentation + systemic / clinical …), 200 mg/kg/day; in the data set on rat [9] (setting [17]), at least 7000 mg/kg/day; in the data set on dog it was under 10 mg/kg/day.

On to `COc1cc(OC)nc(NC(=O)NS(=O)(=O)c2cc(NC=O)ccc2C(=O)N(C)C)n1` [Foramsulfuron], for which, in the data set with mouse [10], the LEL was found to be 1000 mg/kg/day, the LOAEL is over 1000 mg/kg/day, the NEL worked out at 498 mg/kg/day and the NOAEL was at least 1000 mg/kg/day.
